Values quoted from earlier work in patent US20160324770A1, “INTRATHECAL ADMINISTRATION, PREFERABLY INTRAVENTRICULAR, OF MTOR INHIBITORS FOR THE THERAPY OF SOME NEURODEGENERATIVE, NEUROINFLAMMATORY AND NEURO-ONCOLOGIC DISEASES” (priority 2012, published 2016).

Conditions: cited from earlier work

Q: Which half-life (according to the FDA) does the source give for CO[C@H]1C[C@@H]2CC[C@@H](C)[C@@](O)(O2)C(=O)C(=O)N2CCCC[C@H]2C(=O)O[C@H]([C@H](C)C[C@@H]2CC[C@@H](O)[C@H](OC)C2)CC(=O)[C@H](C)/C=C(\C)[C@@H](O)[C@@H](OC)C(=O)[C@H](C)C[C@H](C)/C=C/C=C/C=C/1C [rapamycin] here?
A: 62 h

Q: What about the “half-life compared to everolimus” value of the same compound?
A: more than double that time
